According to patent publication US6004960A, “Pyridazinones as inhibitors of cyclooxygenase-2” (Merck Frosst Canada, Inc., priority 1998, dated 1999):

Key:
COX-2 = target: T1, COX-2 (Homo sapiens, UniProt P35354); test: Whole cell assay for COX-2 using CHO transfected cell line (CHO [hCOX-2]), PGE2; assay type: cell-based; set-up: expressed in transfected cells; host or cells: CHO (Chinese hamster ovary), stably transfected with pCDNAIII vector; CHO [hCOX-2]; conditions: CHO [hCOX-2] cells, 10 μM AA
T1 sequence (P35354 18-604): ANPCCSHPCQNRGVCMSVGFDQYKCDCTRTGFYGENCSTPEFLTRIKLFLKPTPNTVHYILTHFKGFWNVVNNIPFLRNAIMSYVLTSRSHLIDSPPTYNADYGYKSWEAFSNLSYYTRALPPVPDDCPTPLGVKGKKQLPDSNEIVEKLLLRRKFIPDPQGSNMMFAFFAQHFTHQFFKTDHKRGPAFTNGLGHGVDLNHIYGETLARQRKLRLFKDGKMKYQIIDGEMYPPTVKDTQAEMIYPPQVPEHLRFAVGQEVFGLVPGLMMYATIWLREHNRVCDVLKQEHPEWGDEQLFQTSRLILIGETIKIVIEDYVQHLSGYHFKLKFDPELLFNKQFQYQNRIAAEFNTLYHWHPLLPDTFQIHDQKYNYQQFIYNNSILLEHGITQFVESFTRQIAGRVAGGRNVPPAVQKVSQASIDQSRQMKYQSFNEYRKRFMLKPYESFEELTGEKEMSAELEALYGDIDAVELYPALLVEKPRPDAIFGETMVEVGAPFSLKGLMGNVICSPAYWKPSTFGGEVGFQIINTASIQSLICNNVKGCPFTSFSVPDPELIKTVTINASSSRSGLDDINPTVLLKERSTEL
Procedure: Chinese hamster ovary (CHO) cell lines which have been stably transfected with an eukaryotic expression vector pCDNAIII containing either the human COX-1 or COX-2 cDNA's are used for the assay. These cell lines are referred to as CHO [hCOX-1] and CHO [hCOX-2], respectively. […] Drugs to be tested are dissolved in DMSO to 66.7-fold the highest test drug concentration. […] Cells (0.3×10^6 cells in 200 p) are preincubated with 3 AIl of the test drug or DMSO vehicle for 15 min at 37° C. […] Cells are then challenged in the presence or absence of drug with the AA/HBSS solution to yield a final concentration of 0.5 μM AA in the CHOhCOX-1] assay and a final concentration of 10 μM AA in the CHO [hCOX-2] assay. […] The samples are centrifuged at 300×g at 4° C. for 10 min, and an aliquot of the clarified supernatant is appropriately diluted for the determination of PGE2 levels using an enzyme-liked immunoassay for PGE2 (Correlate PGE2 enzyme immunoassay kit, Assay Designs, Inc.). Cyclooxygenase activity in the absence of test compounds is determined as the difference in PGE2 levels of cells challenged with arachidonic acid versus the PGE2 levels in cells mock-challenged with ethanol vehicle. Inhibition of PGE2 synthesis by test compounds is calculated as a percentage of the activity in the presence of drug versus the activity in the positive control samples.
In the assay, inhibition is determined by measuring the amount of prostaglandin E2 (PGE2) synthesized in the presence of arachidonic acid, cyclooxygenase-I or cyclooxygenase-2 and a putative inhibitor.

COX-1 = COX-1 (Homo sapiens, UniProt P23219); test: Human whole blood assay, COX-1 (clotting-induced TxB2 production); assay type: cell-based; set-up: platelets in whole blood contain a large amount of the COX-1 enzyme; from tissue; host or cells: fresh human whole blood (platelets), allowed to clot; conditions: clotting-induced TxB2, 1 hour at 37° C, read-out: COX-1 (IC50 μM) HWB
Sequence of COX-1 (P23219 24-599): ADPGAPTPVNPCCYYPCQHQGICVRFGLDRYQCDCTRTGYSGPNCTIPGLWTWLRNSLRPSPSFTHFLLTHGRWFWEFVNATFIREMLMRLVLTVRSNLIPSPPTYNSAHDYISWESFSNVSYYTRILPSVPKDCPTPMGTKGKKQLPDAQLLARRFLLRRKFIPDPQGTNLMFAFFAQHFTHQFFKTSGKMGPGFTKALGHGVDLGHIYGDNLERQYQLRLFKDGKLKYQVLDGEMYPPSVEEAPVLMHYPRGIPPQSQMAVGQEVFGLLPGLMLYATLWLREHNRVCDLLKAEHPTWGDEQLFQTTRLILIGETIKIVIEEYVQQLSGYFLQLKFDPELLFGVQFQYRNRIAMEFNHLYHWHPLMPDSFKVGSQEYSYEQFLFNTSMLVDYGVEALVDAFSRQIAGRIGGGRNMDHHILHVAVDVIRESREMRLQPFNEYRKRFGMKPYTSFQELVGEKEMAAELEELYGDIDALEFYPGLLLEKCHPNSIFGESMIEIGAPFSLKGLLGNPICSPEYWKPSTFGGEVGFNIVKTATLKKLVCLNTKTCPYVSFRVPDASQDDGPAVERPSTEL
Procedure: Human whole blood provides a protein and cell-rich milieu appropriate for the study of biochemical efficacy of anti-inflammatory compounds such as selective COX-2 inhibitors. […] This is consistent with the observation that COX-2 inhibitors have no effect on PGE2 production in normal blood. These inhibitors are active only after incubation of human whole blood with LPS, which induces COX-2. This assay can be used to evaluate the inhibitory effect of selective COX-2 inhibitors on PGE2 production. As well, platelets in whole blood contain a large amount of the COX-1 enzyme. Immediately following blood clotting, platelets are activated through a thrombin-mediated mechanism. This reaction results in the production of thromboxane B2 (TxB2) via activation of COX-1. Thus, the effect of test compounds on TxB2 levels following blood clotting can be examined and used as an index for COX-1 activity. Therefore, the degree of selectivity by the test compound can be determined by measuring the levels of PGE2 after LPS induction (COX-2) and […] following blood clotting (COX-1) in the same assay.
B. COX-1 (Clotting-induced TxB2 production)
Fresh blood is collected into vacutainers containing no anticoagulants. […] The tubes are vortexed and incubated at 37° C. for 1 hour to allow blood to clot. At the end of incubation, serum is obtained by centrifugation (12,000×g for 5 min.). A 100 μL aliquot of serum is mixed with 400 μL of methanol for protein precipitation. The supernatant is obtained and is assayed for T×B2 using a enzyme immunoassay kit (Cayman, #519031) according to the manufacturer's instruction.

IC50 (COX-2): 0.13 µM | IC50 (COX-1): 56 µM
SMILES: CS(=O)(=O)c1ccc(-c2cnn(Cc3ccccc3)c(=O)c2-c2cccnc2)cc1 [Example 28, 2-Benzyl-5-(4-methylsulfonyl)phenyl-4-(3-pyridyl)-2H-pyridazin-3-one]
